Test results published in US10526389B2, “Peptides and combinations of peptides for use in immunotherapy against lung cancer, including NSCLC and other cancers” (Immatics Biotechnologies GmbH, priority 2015, dated 2020).

System: CD8+ T cells
Experiment: In vitro immunogenicity of HLA-A*02 peptides (CD8+ T-cell priming with aAPCs, multimer staining)
Format: cell-based, human
Text: In order to obtain information regarding the immunogenicity of the TUMAPs of the present invention, the inventors performed investigations using an in vitro T-cell priming assay based on repeated stimulations of CD8+ T cells with artificial antigen presenting cells (aAPCs) loaded with peptide/MHC complexes and anti-CD28 antibody.
In order to perform in vitro stimulations by artificial antigen presenting cells loaded with peptide-MHC complex (pMHC) and anti-CD28 antibody, the inventors first isolated CD8+ T cells from fresh HLA-A*02 leukapheresis products via positive selection using CD8 microbeads (Miltenyi Biotec, Bergisch-Gladbach, Germany) of healthy donors obtained from the University clinics Mannheim, Germany, after informed consent.
PBMCs and isolated CD8+ lymphocytes were incubated in T-cell medium (TCM) until use consisting of RPMI-Glutamax (Invitrogen, Karlsruhe, Germany) supplemented with 10% heat inactivated human AB serum (PAN-Biotech, Aidenbach, Germany), 100 U/ml Penicillin/100 μg/ml Streptomycin (Cambrex, Cologne, Germany), 1 mM sodium pyruvate (CC Pro, Oberdorla, Germany), 20 μg/ml Gentamycin (Cambrex). 2.5 ng/ml IL-7 (PromoCell, Heidelberg, Germany) and 10 U/ml IL-2 (Novartis Pharma, Nurnberg, Germany) were also added to the TCM at this step.
Generation of pMHC/anti-CD28 coated beads, T-cell stimulations and readout was performed in a highly defined in vitro system using four different pMHC molecules per stimulation condition and 8 different pMHC molecules per readout condition.
The purified co-stimulatory mouse IgG2a anti human CD28 Ab 9.3 (Jung et al., 1987) was chemically biotinylated using Sulfo-N-hydroxysuccinimidobiotin as recommended by the manufacturer (Perbio, Bonn, Germany). Beads used were 5.6 μm diameter streptavidin coated polystyrene particles (Bangs Laboratories, Illinois, USA).
800.000 beads/200 μl were coated in 96-well plates in the presence of 4×12.5 ng different biotin-pMHC, washed and 600 ng biotin anti-CD28 were added subsequently in a volume of 200 μl. Stimulations were initiated in 96-well plates by co-incubating 1×10^6 CD8+ T cells with 2×10^5 washed coated beads in 200 μl TCM supplemented with 5 ng/ml IL-12 (PromoCell) for 3 days at 37° C. Half of the medium was then exchanged by fresh TCM supplemented with 80 U/ml IL-2 and incubating was continued for 4 days at 37° C. This stimulation cycle was performed for a total of three times. For the pMHC multimer readout using 8 different pMHC molecules per condition, a two-dimensional combinatorial coding approach was used as previously described (Andersen et al., 2012) with minor modifications encompassing coupling to 5 different fluorochromes. Finally, multimeric analyses were performed by staining the cells with Live/dead near IR dye (Invitrogen, Karlsruhe, Germany), CD8-FITC antibody clone SK1 (BD, Heidelberg, Germany) and fluorescent pMHC multimers. For analysis, a BD LSRII SORP cytometer equipped with appropriate lasers and filters was used. Peptide specific cells were calculated as percentage of total CD8+ cells. Evaluation of multimeric analysis was done using the FlowJo software (Tree Star, Oregon, USA). In vitro priming of specific multimer+CD8+ lymphocytes was detected by comparing to negative control stimulations.

| Substance | in vitro immunogenicity: donors | in vitro immunogenicity: wells |
| --- | --- | --- |
| MCM5-001 (ALSGTLSGV; listed as Homo sapiens) | ++++ (>= 70% = ++++) | + (<20% = +) |
| ILIDWLVQV (listed as Homo sapiens) [SEQ ID No. 117] | ++++ (>= 70% = ++++) | ++ (20%-49% = ++) |
| PCNXL3-001 (GVLENIFGV; listed as Homo sapiens) | +++ (50%-69% = +++) | + (<20% = +) |
| COL6A3-003 (NLLDLDYEL; listed as Homo sapiens) | ++++ (>= 70% = ++++) | + (<20% = +) |
| COL12A1-002 (FLVDGSWSV; listed as Homo sapiens) | ++ (20%-49% = ++) | + (<20% = +) |
| CSNK2A2-001 (VLSSGLTAA; listed as Homo sapiens) | + (<20% = +) | + (<20% = +) |
| SMYD3-001 (SLIEDLILL; listed as Homo sapiens) | ++ (20%-49% = ++) | + (<20% = +) |
| SF3B3-001 (ELDRTPPEV; listed as Homo sapiens) | ++++ (>= 70% = ++++) | ++ (20%-49% = ++) |
| BUB1B-001 (KIVDFSYSV) | ++++ (>= 70% = ++++) | ++ (20%-49% = ++) |
| RLLDSVSRL (listed as Homo sapiens) [SEQ ID No. 121] | ++++ (>= 70% = ++++) | ++ (20%-49% = ++) |
| CERC-001 (KLSWDLIYL; listed as Homo sapiens) | ++++ (>= 70% = ++++) | +++ (50%-69% = +++) |
| WNT5A-001 (AMSSKFFLV; listed as Homo sapiens) | ++++ (>= 70% = ++++) | ++ (20%-49% = ++) |
| ALVDHTPYL (listed as Homo sapiens) [SEQ ID No. 136] | ++++ (>= 70% = ++++) | + (<20% = +) |
| ILLTEQINL (listed as Homo sapiens) [SEQ ID No. 18] | ++ (20%-49% = ++) | + (<20% = +) |
| FLIPYAIML (listed as Homo sapiens) [SEQ ID No. 2] | ++++ (>= 70% = ++++) | + (<20% = +) |
| FLFDGSANL (listed as Homo sapiens) [SEQ ID No. 13] | ++ (20%-49% = ++) | + (<20% = +) |
| DUSP4-001 (FVFSFPVSV; listed as Homo sapiens) | ++++ (>= 70% = ++++) | ++ (20%-49% = ++) |
| DIO2-001 (ALYDSVILL; listed as Homo sapiens) | + (<20% = +) | + (<20% = +) |
| CCNB2-001 (ILVDWLVQV; listed as Homo sapiens) | ++++ (>= 70% = ++++) | ++ (20%-49% = ++) |
| KIQEMQHFL (listed as Homo sapiens) [SEQ ID No. 116] | ++++ (>= 70% = ++++) | + (<20% = +) |
| GBP5-001 (SLLSELQHA; listed as Homo sapiens) | ++ (20%-49% = ++) | + (<20% = +) |
| NLIEKSIYL (listed as Homo sapiens) [SEQ ID No. 141] | ++++ (>= 70% = ++++) | + (<20% = +) |
| COL6A3-010 (KLLPYIVGV; listed as Homo sapiens) | ++++ (>= 70% = ++++) | ++ (20%-49% = ++) |
| ERO-001 (LLLEILHEI; listed as Homo sapiens) | +++ (50%-69% = +++) | + (<20% = +) |
